Experimental data reported in patent publication US20260347330A1, “N-METHYL-D-ASPARTATE RECEPTOR (NMDAR) ANTAGONISTS AND USES THEREOF” (Bexson Biomedical, Inc., priority 2022, published 2026).

Target: NMDAR
Assay: Homologous binding experiments with MK-801
Settings: rat forebrain
Protocol: Rat forebrains from 7-8 week old Sprague-Dawley rats (BioChemed, USA) were homogenized in a buffer containing 10 mM HEPES and 1 mM EDTA (pH 7.4) using a mechanical homogenizer (Janke-Kunkel Ultra-Turrax T25). A 10 mL volume was used per brain for all steps involving suspension of the brain homogenate tissue. The brain homogenate was then centrifuged (15 minutes at 20,000 RPM and 4 ° C). The supernatant was carefully poured off and the pellet was resuspended in fresh 10 mM HEPES and 1 mM EDTA containing buffer. This process was repeated 5 times. Following the 5th centrifugation, the buffer was replaced with a buffer containing 10 mM HEPES (pH 7.4). […] Protein concentration of the homogenate was determined by utilizing the Bradford method using Coomassie protein assay reagent (Sigma, USA) with Bovine Serum albumin (Sigma, USA) as a standard.
At the time of the experiment, the homogenate was diluted to a final concentration of […] in 10 mM HEPES buffer, 1 mM glutamate, and 0.1 mM glycine (pH 7.4) and combined with 1 nM (+)-[3H]-MK-801 (Perkin Elmer NET972250UC), unlabeled competitor compounds at varying concentrations, or 30 uM MK-801 to determine non-specific binding, in a total volume of 1 mL in a 96 well plate. […] IC50 value estimates were determined in GraphPad Prism 9.3.1 using non-linear regression (single site fit) with log-concentration plotted against percent specific binding. […]

C[C@]12N[C@H](Cc3ccccc31)c1ccccc12 [MK-801]
Kd: 1.67 nM
